This is an account of results in patent US12709622B2, “Conjugates for selective responsiveness to vicinal diols” (PROTOMER TECHNOLOGIES, INC., priority 2020, dated 2026).

Holding throughout (conditions): for Kd: ARS displacement, 0.1M phosphate buffer, pH 7.4, 25° C.
Experiment [1] is described as follows: Alizarin Red S (ARS) displacement assay, binding to glucose. As for the experimental part:
(§1) The association constant for the binding event between Alizarin Red S (ARS) and the compounds of each of examples 1-24 was determined using standard methods in the art. Triplicate titrations of 10^-5 M ARS in 0.1M phosphate buffer, pH 7.4, were performed in a 96-well plate against serial dilutions of example compounds, ranging in concentration from 0-0.1M at 25° C. The example compound-ARS solution was incubated for 5-45 minutes at 25° C., and absorbance intensity was measured using excitation wavelength 468 nm and emission wavelength 585 nm. Changes in intensity were plotted against the concentration of the example compound, and the intensity data was fitted to yield an association constant for ARS binding.
(§2) The association constant for the binding between a target sugar compound (e.g., glucose) and a boronate compound was determined via the displacement of ARS bound to the example compounds. Triplicate wells of 10^-5 M ARS and 0.1M example compounds in 0.1M phosphate buffer, pH 7.4, were titrated in a 96-well plate against serial dilutions of the target sugar compound, ranging in concentration from 0-2.0 M at 25° C. The boronate-ARS-carbohydrate solution was incubated for 30-60 minutes at 25° C. and the intensity of each well was measured in a plate reader at excitation wavelength 468 nm and emission wavelength 585 nm. Changes in intensity were plotted against concentration of the target sugar compound, and the data was fitted to a one-site competition equation:
(§3) [formula] to yield an association constant for the boronate compound-target sugar compound binding event.

A short description of experiment [2]: Alizarin Red S (ARS) displacement assay, binding to fructose. As for the experimental part: as §1, §2, §3
Experiment [3] can be described thus: Alizarin Red S (ARS) displacement assay, binding to lactate. As for the experimental part:
as §1, §2, §3

Setting [4] is: Example 7 (heterobifunctional, boroxole) compared to Example 5.

Consider `CS(=O)(=O)c1ccc(B(O)O)cc1C(=O)N[C@@H]1C[C@H](C(N)=O)N(C(=O)c2cc(B(O)O)ccc2S(C)(=O)=O)C1` [Example 1, (3-((2R,4R)-4-(5-borono-2-(methylsulfonyl)benzamido)-2-carbamoylpyrrolidine-1-carbonyl)-4-(methylsulfonyl)phenyl)boronic acid], for which the dissociation constant Kd (in general, the concentration at which binding is half-saturated) is 25.2 mM in experiment [1], 1.7 mM in experiment [2] and 38.3 mM in experiment [3].
For `O=C(O)CNC(=O)[C@@H]1C[C@H](NC(=O)c2ccc3c(c2)B(O)OC3)CN1C(=O)c1ccc2c(c1)B(O)OC2` [Example 2, ((2S,4S)-1-(1-hydroxy-1,3-dihydrobenzo[c][1,2]oxaborole-6-carbonyl)-4-(1-hydroxy-1,3-dihydrobenzo[c][1,2]oxaborole-6-carboxamido)pyrrolidine-2-carbonyl)glycine], the dissociation constant Kd in experiment [1] came to 3.7 mM; in experiment [2], 2 mM; in experiment [3] it was 58 mM.
The like results for `O=C(O)CNC(=O)[C@@H]1C[C@H](NC(=O)c2ccc3c(c2)B(O)OC3)CN1C(=O)c1cc(B(O)O)ccc1[N+](=O)[O-]` [Example 3, ((2S,4S)-1-(5-borono-2-nitrobenzoyl)-4-(1-hydroxy-1,3-dihydrobenzo[c][1,2]oxaborole-6-carboxamido)pyrrolidine-2-carbonyl)glycine] were, in that order, 14 mM, 1.9 mM and 48 mM.
In the case of `NC(=O)[C@H](CNC(=O)c1ccc2c(c1)B(O)OC2)NC(=O)c1cc(B(O)O)cc([N+](=O)[O-])c1` [Example 4, (S)-(3-((1-amino-3-(1-hydroxy-1,3-dihydrobenzo[c][1,2]oxaborole-6-carboxamido)-1-oxopropan-2-yl)carbamoyl)-5-nitrophenyl)boronic acid], the values for the Kd in experiment [1] and in experiment [2] were 13 mM and 5.6 mM, respectively.
Take `NC(=O)[C@H](CNC(=O)c1cc(B(O)O)ccc1[N+](=O)[O-])NC(=O)c1cc(B(O)O)ccc1[N+](=O)[O-]` [Example 5, (S)-(3-((1-amino-3-(5-borono-2-nitrobenzamido)-1-oxopropan-2-yl)carbamoyl)-4-nitrophenyl)boronic acid]: the figures for the dissociation constant (Kd) in experiment [1] and in experiment [2] were 29.4 mM and 11 mM, respectively.
Regarding `NC(=O)[C@H](CNC(=O)c1cc2c(c(C(F)(F)F)c1)COB2O)NC(=O)c1cc(B(O)O)cc([N+](=O)[O-])c1` [Example 6, (S)-(3-((1-amino-3-(1-hydroxy-4-(trifluoromethyl)-1,3-dihydrobenzo[c][1,2]oxaborole-6-carboxamido)-1-oxopropan-2-yl)carbamoyl)-5-nitrophenyl)boronic acid], the Kd was 3.4 mM in experiment [1], 4.6 mM in experiment [2] and 74.1 mM in experiment [3].
Turning to `NC(=O)[C@H](CNC(=O)c1ccc2c(c1)B(O)OC2)NC(=O)c1cc(B(O)O)ccc1[N+](=O)[O-]` [Example 7, (S)-(3-((1-amino-3-(J-hydroxy-1,3-dihydrobenzo[c][1,2]oxaborole-6-carboxamido)-1-oxopropan-2-yl)carbamoyl)-4-nitrophenyl)boronic acid], the equilibrium dissociation constant (Kd) in experiment [1] was determined as 4.4 mM; in experiment [2], 1.2 mM; in experiment [3], 39.5 mM. For the same compound, in experiment [1] (setting [4]), the “increase in affinity to glucose” value was approximately 7 fold. Besides, the “increase in affinity to fructose” value in experiment [2] (setting [4]) is on record as approximately 7 fold. Moreover, in experiment [3] (setting [4]), the “increase in affinity to lactate” value is approximately 7 fold.
Take `NC(=O)[C@H](CNC(=O)c1sccc1B(O)O)NC(=O)c1sccc1B(O)O` [Example 8, (S)-(2-((1-amino-3-(3-boronothiophene-2-carboxamido)-1-oxopropan-2-yl)carbamoyl)thiophen-3-yl)boronic acid]: the Kd in experiment [1] was 32 mM; in experiment [2], 2.2 mM.
Turning to `O=C(O)CN(CCCNC(=O)c1cc(B(O)O)cc([N+](=O)[O-])c1)C(=O)c1cc(B(O)O)cc([N+](=O)[O-])c1` [Example 9, N-(3-(3-borono-5-nitrobenzamido)propyl)-N-(3-borono-5-nitrobenzoyl)glycine], the Kd in experiment [1] was determined as 6.5 mM; in experiment [2] it was 10.6 mM.
The corresponding values for `O=C(O)CN(CCCCNC(=O)c1cc(B(O)O)cc([N+](=O)[O-])c1)C(=O)c1cc(B(O)O)cc([N+](=O)[O-])c1` [Example 10, N-(4-(3-borono-5-nitrobenzamido)butyl)-N-(3-borono-5-nitrobenzoyl)glycine] are 99.8 mM and 11.5 mM.
Compound `O=C(O)CN(CCCCCNC(=O)c1cc(B(O)O)cc([N+](=O)[O-])c1)C(=O)c1cc(B(O)O)cc([N+](=O)[O-])c1` [Example 11, N-(5-(3-borono-5-nitrobenzamido)pentyl)-N-(3-borono-5-nitrobenzoyl)glycine] came in with a Kd in experiment [2] of 24.7 mM.
The compound `O=C(O)CN(Cc1ccc(CNC(=O)c2cc(B(O)O)cc([N+](=O)[O-])c2)cc1)C(=O)c1cc(B(O)O)cc([N+](=O)[O-])c1` [Example 12, N-(4-((3-borono-5-nitrobenzamido)methyl)benzyl)-N-(3-borono-5-nitrobenzoyl)glycine] came in with a Kd in experiment [2] of 12.1 mM.
Same read-out and setting: the value for `O=C(O)CN(Cc1cccc(CNC(=O)c2cc(B(O)O)cc([N+](=O)[O-])c2)c1)C(=O)c1cc(B(O)O)cc([N+](=O)[O-])c1` [Example 13, N-(3-((3-borono-5-nitrobenzamido)methyl)benzyl)-N-(3-borono-5-nitrobenzoyl)glycine] was 17.8 mM.
For `NC(=O)CN(C(=O)c1ccc2c(c1)B(O)OC2)[C@@H]1CCCC[C@H]1NC(=O)c1ccc2c(c1)B(O)OC2` [Example 14, N-(2-amino-2-oxoethyl)-1-hydroxy-N-((1R,2R)-2-(1-hydroxy-1,3-dihydrobenzo[c][1,2]oxaborole-6-carboxamido)cyclohexyl)-1,3-dihydrobenzo[c][1,2]oxaborole-6-carboxamide], the dissociation constant (Kd) in experiment [1] stood at 1.64 mM; in experiment [2], 5.88 mM; in experiment [3], 59.8 mM.
For the compound `O=C(O)CN(CCCNC(=O)c1ccc(F)c(B(O)O)c1)C(=O)c1ccc(F)c(B(O)O)c1` [Example 15, N-(3-(3-borono-4-fluorobenzamido)propyl)-N-(3-borono-4-fluorobenzoyl)glycine], the Kd in experiment [1] was 59 mM; in experiment [2] it was 4.8 mM; in experiment [3], 51.6 mM.
As for `O=C(O)CN(Cc1cccc(CNC(=O)c2ccc(F)c(B(O)O)c2)c1)C(=O)c1ccc(F)c(B(O)O)c1` [Example 17, N-(3-((3-borono-4-fluorobenzamido)methyl)benzyl)-N-(3-borono-4-fluorobenzoyl)glycine], the equilibrium dissociation constant (Kd) in experiment [1] stood at 88.6 mM; in experiment [2], 6.5 mM; in experiment [3], 53.5 mM.
Take `O=C(O)CN(C(=O)c1ccc(F)c(B(O)O)c1)[C@H]1CCCC[C@H]1NC(=O)c1ccc(F)c(B(O)O)c1` [Example 18, N-((1S,2R)-2-(3-borono-4-fluorobenzamido)cyclohexyl)-N-(3-borono-4-fluorobenzoyl)glycine]: the dissociation constant (Kd) is 95.4 mM in experiment [1], 6.04 mM in experiment [2] and 67.5 mM in experiment [3].
With `O=C(O)CN(CCCNC(=O)c1ccc(B(O)O)c(F)c1)C(=O)c1ccc(B(O)O)c(F)c1` [Example 19, N-(3-(4-borono-3-fluorobenzamido)propyl)-N-(4-borono-3-fluorobenzoyl)glycine], the Kd worked out at 43 mM in experiment [1], 2.87 mM in experiment [2] and 31 mM in experiment [3].
`O=C(O)CN(CCCCCNC(=O)c1ccc(B(O)O)c(F)c1)C(=O)c1ccc(B(O)O)c(F)c1` [Example 20, N-(S-(4-borono-3-fluorobenzamido)pentyl)-N-(4-borono-3-fluorobenzoyl)glycine]: the Kd in experiment [1] is 30.4 mM; in experiment [2], 5.86 mM; in experiment [3], 70.3 mM.
`O=C(O)CN(Cc1ccc(CNC(=O)c2ccc(B(O)O)c(F)c2)cc1)C(=O)c1ccc(B(O)O)c(F)c1` [Example 21, N-(4-((4-borono-3-fluorobenzamido)methyl)benzyl)-N-(4-borono-3-fluorobenzoyl)glycine] showed an equilibrium dissociation constant (Kd) in experiment [2] of 13.5 mM. This lies in the millimolar range.
Regarding `O=C(O)CN(Cc1cccc(CNC(=O)c2ccc(B(O)O)c(F)c2)c1)C(=O)c1ccc(B(O)O)c(F)c1` [Example 22, N-(3-((4-borono-3-fluorobenzamido)methyl)benzyl)-N-(4-borono-3-fluorobenzoyl)glycine], the Kd in experiment [1] came to 16.1 mM; in experiment [2], 9.52 mM; in experiment [3], 97.3 mM.
On to `O=C(O)CN(Cc1cccc(CNC(=O)c2cc(Br)cc(B(O)O)c2)c1)C(=O)c1cc(Br)cc(B(O)O)c1` [Example 24, N-(3-((3-borono-5-bromobenzamido)methyl)benzyl)-N-(3-borono-5-bromobenzoyl)glycine], for which the values for the Kd in experiment [1] and in experiment [2] were 93.7 mM and 9.36 mM, respectively.
